How the values were obtained:
[1] = tested on: sheet-shaped human skeletal myoblast cell culture; test: Cell survival rate confirmation test, preservative solution based on physiological saline solution (PI staining, flow cytometry); settings: 2° C. to 8° C.; for cell survival rate: three days
Protocol: (§1) The sheet-shaped cell cultures were prepared using skeletal myoblast cells (with fibroblast cells contained therein) prepared from a human skeletal muscle by a usual or known method. A cell mixture of human skeletal myoblast cells and human fibroblast cells suspended in a 20% human serum-containing DMEM/F12 medium (Thermo Fisher Scientific Inc.) was seeded at 3.7×10^6 cells/well on a temperature-responsive culture dish (UpCell® 12 well Multi-well, CellSeed Inc.), and was then subjected to the sheet-formation cultivation at 37° C. under 5% CO2 for 12 to 26 hours. After the sheet-formation cultivation, the medium was removed, 700 μL of HBSS (+) (Thermo Fisher Scientific Inc.) which was chilled to 4° C. was added, and then the resultant was left to stand for 10 minutes. Then, gentle pipetting was conducted such as to detach the sheet-shaped cell culture completely.
After the sheet-shaped cell culture was completely detached, HBSS (+) was removed, and a fresh supply of room-temperature HBSS (+) was added to conduct rinsing. Such a washing step was repeated four times.
The sheet-shaped cell culture left to stand under the refrigerated conditions in (1) above was put to measurement of cell survival rate. After the sheet-shaped cell culture left to stand in the preservative solution for a predetermined period was dissociated with a trypsin-like protease, the cells were dispensed into a FACS tube to be 3.5×10^5 cells, followed by centrifugation, and the supernatant was discarded. To the resultant was added 3 ml of 0.5% BAS-containing PBS solution, and, after rinsing the cells by vortex, centrifugation was conducted, the supernatant was removed, and 500 μL of a propidium iodide (PI, Becton Dickinson) prepared to a final concentration of 0.6 μg/mL by use of a 0.5% BSA-containing PBS solution was added and mixed. […] The analysis was conducted using a flow cytometer (Becton Dickinson), and the proportion of PI-unstained cells contained in the whole cells admixed with PI was measured. […]

[2] = tested on: sheet-shaped human skeletal myoblast cell culture; test: Cell survival rate confirmation test, preservative solution based on Hanks' balanced salt solution HBSS (+) (PI staining, flow cytometry); settings: 2° C. to 8° C.
Protocol: as §1, with “completely. The thus detached sheet-shaped cell culture naturally shrank.” for “completely.”
After the sheet-shaped cell culture was completely detached, HBSS (+) was removed, and a fresh supply of room-temperature HBSS (+) was added to conduct rinsing. […]
The sheet-shaped cell culture left to stand under the refrigerated conditions in (1) above was put to measurement of cell survival rate. […] The analysis was conducted using a flow cytometer (Becton Dickinson), and the proportion of PI-unstained cells contained in the whole cells admixed with PI was measured. […]

Molecule | cell survival rate ([1]; 10 μM vitamin E in physiological saline solution) | cell survival rate ([1]; 100 μM vitamin E in physiological saline solution) | cell survival rate as compared to the case of no addition of edaravone ([1]; 1 μM or 10 μM edaravone in physiological saline solution, five days) | cell survival rate as compared to HBSS (+) not admixed with edaravone ([2]; 100 μM edaravone in HBSS (+), three days to seven days) | lowering in the number of live cells from three days to seven days of preservation, compared to edaravone-nonadded HBSS (+) ([2]; HBSS (+)-based edaravone-added preservative solution (100 μM))
tocopherol [vitamin E] | approximately 65% | approximately 65% | – | – | –
CC1=NN(c2ccccc2)C(=O)C1 [edaravone, 3-methyl-1-phenyl-2-pyrazolin-5-one] | – | – | increased | higher cell survival rate | restrained
